Test results published in the supplement of paper PMC10331698.
± gives the standard deviation of the averaged measurements.

Columns and labels:
Experiment in all cases: level (log10 ratio to DMSO vehicle control); higher = higher biomarker level / cell amount than vehicle control
Settings in all cases: in DMSO
[1] = compound: O=C(O)C(F)(F)C(F)(F)C(F)F [4H-Perfluorobutanoic acid]
Description: (§1)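 BioMAP Diversity Plus panel of 12 human primary cell co-culture systems (3C, 4H, LPS, SAg, BT, BF4T, BE3C, CASM3C, HDF3CGF, KF3CT, MyoF, Mphg). Compounds were added 1 h before stimulation and left for 24 h (MyoF 48 h; BT 72 h for soluble read-outs or 6 d for IgG). Biomarkers were read by ELISA, cytotoxicity by SRB, PBMC viability and proliferation by Alamar Blue. Each well value was divided by the mean of 8 DMSO control wells on the same plate and log10 transformed; duplicate blinded samples were tested at 4 concentrations.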

Perfluoroheptanoic acid = compound: O=C(O)C(F)(F)C(F)(F)C(F)(F)C(F)(F)C(F)(F)C(F)(F)F [Perfluoroheptanoic acid]
Description: as §1

[2] = compound: FC(F)(F)C(F)(C(F)(F)F)C(F)(F)C(F)(F)CC1CO1 [3-(Perfluoro-3-methylbutyl)-1,2-propenoxide]
Description: as §1

Perfluoropentanoic acid = compound: O=C(O)C(F)(F)C(F)(F)C(F)(F)C(F)(F)F [Perfluoropentanoic acid]
Description: as §1

[3] = compound: OCC(F)(F)OC(F)(F)C(F)(F)OC(F)(F)CO [1H,1H,8H,8H-Perfluoro-3,6-dioxaoctane-1,8-diol]
Description: as §1

[4] = compound: FC(F)(F)C(F)(F)C(F)(F)C(F)(F)C(F)(F)C(F)(F)C(F)(F)C(F)(F)CCS [2-(Perfluorooctyl)ethanthiol]
Description: as §1

[5] = compound: O=C(O)C(F)(F)C(F)(F)OC(F)(F)F [Perfluoro-3-methoxypropanoic acid]
Description: as §1

| Test System | level (log10) ([1]; 6700 nM) | level (log10) ([1]; 20000 nM) | level (log10) ([1]; 60000 nM) | level (log10) (Perfluoroheptanoic acid; 6700 nM) | level (log10) (Perfluoroheptanoic acid; 20000 nM) | level (log10) (Perfluoroheptanoic acid; 60000 nM) | level (log10) ([2]; 6700 nM) | level (log10) ([2]; 20000 nM) | level (log10) (Perfluoropentanoic acid; 6700 nM) | level (log10) (Perfluoropentanoic acid; 20000 nM) | level (log10) (Perfluoropentanoic acid; 60000 nM) | level (log10) ([3]; 6700 nM) | level (log10) ([3]; 20000 nM) | level (log10) ([3]; 60000 nM) | level (log10) ([4]; 6700 nM) | level (log10) ([4]; 20000 nM) | level (log10) ([5]; 6700 nM) | level (log10) ([5]; 20000 nM) | level (log10) ([5]; 60000 nM) |
| --- | --- | --- | --- | --- | --- | --- | --- | --- | --- | --- | --- | --- | --- | --- | --- | --- | --- | --- | --- |
| HDF3CGF:SRB | -0.0125 ± 0.06 | -0.0095 ± 0.0035 | 0.0155 ± 0.022 | -0.029 ± 0.016 | 0.0125 ± 0.064 | -0.045 ± 0.052 | 0.0005 ± 0.057 | 0.0145 ± 0.06 | 0.012 ± 0.011 | 0.01 ± 0.018 | 0.0125 ± 0.03 | -0.031 ± 0.0057 | 0.0405 ± 0.033 | -0.0505 ± 0.016 | 0.0135 ± 0.023 | 0.011 ± 0.0085 | -0.0005 ± 0.042 | 0.014 ± 0.0071 | 0 ± 0.023 |
| 3C:CD142/Tissue Factor | -0.004 ± 0.0014 | -0.021 ± 0.0099 | 0.0105 ± 0.005 | -0.0065 ± 0.037 | -0.004 ± 0.027 | 0.0285 ± 0.039 | -0.0095 ± 0.044 | -0.0125 ± 0.047 | 0.0225 ± 0.011 | 0.018 ± 0.027 | 0.0395 ± 0.056 | 0.0175 ± 0.0064 | 0.011 ± 0.021 | -0.0045 ± 0.0035 | -0.0345 ± 0.022 | -0.0335 ± 0.015 | -0.0125 ± 0.066 | -0.049 ± 0.034 | -0.0095 ± 0.057 |
| HDF3CGF:CXCL11/I-TAC | -0.0155 ± 0.071 | 0.003 ± 0.0071 | 0.0125 ± 0.0035 | -0.0165 ± 0.013 | 0.003 ± 0.011 | 0.01 ± 0.016 | -0.0005 ± 0.079 | -0.0275 ± 0.087 | -0.0085 ± 0.012 | -0.0065 ± 0.015 | 0.005 ± 0.054 | 0.0085 ± 0.00071 | 0.0055 ± 0.0064 | 0.014 ± 0.031 | -0.0135 ± 0.028 | -0.0355 ± 0.0092 | -0.001 ± 0.023 | 0.0165 ± 0.012 | 0.0105 ± 0.00071 |
| KF3CT:TIMP-2 | 0.002 ± 0.031 | -0.011 ± 0.016 | 0.004 ± 0.0099 | 0.006 ± 0.021 | 0.0085 ± 0.025 | 0.031 ± 0.017 | -0.003 ± 0.0042 | 0.0015 ± 0.042 | -0.013 ± 0.037 | -0.0065 ± 0.0035 | 0.017 ± 0.045 | 0.0025 ± 0.005 | 0.005 ± 0.0014 | 0.0065 ± 0.0092 | -0.025 ± 0.02 | -0.021 ± 0.02 | -0.0045 ± 0.025 | 0.0075 ± 0.035 | 0.004 ± 0.016 |
| lMphg:sIL-10 | -0.0495 ± 0.096 | -0.0605 ± 0.054 | -0.019 ± 0.0014 | -0.017 ± 0.018 | 0.007 ± 0.027 | -0.0945 ± 0.032 | -0.005 ± 0.028 | -0.04 ± 0.013 | -0.017 ± 0.013 | -0.075 ± 0.025 | -0.0845 ± 0.05 | -0.0295 ± 0.022 | -0.0355 ± 0.13 | 0.0065 ± 0.00071 | -0.122 ± 0.065 | 0.0325 ± 0.046 | -0.0385 ± 0.013 | -0.064 ± 0.024 | -0.0485 ± 0.044 |
| BE3C:uPA | -0.016 ± 0.05 | -0.009 ± 0.016 | 0.0055 ± 0.06 | -0.002 ± 0.0042 | 0.0055 ± 0.0035 | 0.0255 ± 0.015 | 0.0005 ± 0.018 | 0.004 ± 0.021 | -0.0115 ± 0.0021 | -0.013 ± 0.0057 | 0.004 ± 0.018 | -0.01 ± 0.0042 | 0 ± 0.037 | -0.016 ± 0.0057 | 0.0045 ± 0.00071 | -0.0085 ± 0.016 | -0.004 ± 0.0014 | -0.0025 ± 0.0021 | 0.0005 ± 0.0092 |
| MyoF:Collagen IV | 0.0025 ± 0.0035 | 0.0005 ± 0.0035 | 0.023 ± 0.027 | -0.0175 ± 0.022 | -0.014 ± 0.013 | 0.0305 ± 0.07 | 0.029 ± 0.024 | 0.057 ± 0.075 | -0.007 ± 0.025 | -0.012 ± 0.016 | -0.0025 ± 0.023 | -0.021 ± 0.013 | -0.0125 ± 0.015 | 0.0065 ± 0.032 | -0.009 ± 0.09 | 0.012 ± 0.05 | -0.021 ± 0.02 | 0.002 ± 0.0085 | 0.009 ± 0.013 |
| HDF3CGF:CXCL8/IL-8 | 0.001 ± 0.0014 | 0.0025 ± 0.0078 | 0.0095 ± 0.023 | -0.0055 ± 0.0078 | -0.0055 ± 0.0064 | 0.0095 ± 0.013 | 0.001 ± 0.013 | 0.006 ± 0.0028 | 0.003 ± 0.0057 | -0.006 ± 0.0028 | 0.002 ± 0.023 | 0.0115 ± 0.023 | 0.009 ± 0.024 | 0.015 ± 0.028 | -0.004 ± 0.0099 | -0.0095 ± 0.00071 | 0.0045 ± 0.0064 | 0.0125 ± 0.0035 | 0.003 ± 0.017 |
| lMphg:CD40 | 0.0065 ± 0.028 | -0.0035 ± 0.039 | 0.007 ± 0.024 | -0.0045 ± 0.018 | -0.0265 ± 0.012 | -0.028 ± 0.027 | -0.0105 ± 0.028 | -0.021 ± 0.011 | 0.0225 ± 0.0092 | -0.0085 ± 0.0064 | 0.0175 ± 0.0078 | -0.015 ± 0.02 | -0.0845 ± 0.0035 | -0.0265 ± 0.0035 | 0.0035 ± 0.086 | 0.017 ± 0.048 | -0.0295 ± 0.03 | -0.0165 ± 0.0021 | -0.0225 ± 0.04 |
| CASM3C:HLA-DR | -0.007 ± 0.0028 | 0.0435 ± 0.033 | 0.006 ± 0.024 | -0.009 ± 0.0085 | -0.0315 ± 0.005 | -0.004 ± 0.052 | -0.0105 ± 0.026 | -0.0185 ± 0.0092 | -0.019 ± 0.014 | -0.022 ± 0.023 | 0.003 ± 0.054 | 0.0315 ± 0.025 | 0.0075 ± 0.011 | 0.0045 ± 0.029 | -0.0165 ± 0.012 | 0.003 ± 0.0028 | -0.035 ± 0.033 | -0.0245 ± 0.0092 | 0.004 ± 0.041 |
| CASM3C:SRB | -0.0015 ± 0.0078 | -0.002 ± 0.0071 | 0 ± 0.0099 | -0.008 ± 0.0099 | -0.011 ± 0.0014 | -0.0065 ± 0.012 | 0.004 ± 0.0042 | -0.001 ± 0.014 | 0.0095 ± 0.0021 | -0.008 ± 0.0014 | 0.004 ± 0.0099 | -0.008 ± 0.0014 | -0.003 ± 0.0042 | -0.009 ± 0.0057 | 0.002 ± 0.0085 | 0.0095 ± 0.0064 | 0.0025 ± 0.005 | -0.0045 ± 0.005 | 0.0075 ± 0.015 |
| MyoF:SRB | 0.0005 ± 0.013 | 0.002 ± 0.0085 | 0.0055 ± 0.0021 | -0.0005 ± 0.00071 | 0 ± 0.0085 | -0.003 ± 0.021 | 0.008 ± 0.0085 | 0.005 ± 0.0042 | 0.003 ± 0.0028 | -0.009 ± 0.0014 | -0.004 ± 0.0057 | -0.0045 ± 0.00071 | -0.001 ± 0.0014 | -0.017 ± 0.013 | -0.0005 ± 0.0092 | 0.0025 ± 0.0021 | -0.005 ± 0.0042 | -0.004 ± 0.0028 | 0 ± 0.0014 |
| BE3C:SRB | -0.003 ± 0.0014 | -0.004 ± 0.0099 | 0.0025 ± 0.0021 | -0.006 ± 0.0071 | -0.0065 ± 0.0035 | 0.0035 ± 0.011 | -0.0005 ± 0.00071 | 0.0015 ± 0.0021 | 0.002 ± 0.0085 | -0.0035 ± 0.005 | 0 ± 0.016 | -0.005 ± 0.0085 | -0.0015 ± 0.0064 | -0.0045 ± 0.012 | 0.0055 ± 0.0092 | 0.0095 ± 0.005 | -0.001 | -0.004 ± 0.0014 | 0.004 ± 0.018 |
| CASM3C:PAI-I | 0.009 ± 0.0071 | 0.006 ± 0.0071 | 0.0075 ± 0.0021 | -0.0005 ± 0.018 | 0.0035 ± 0.011 | 0.0105 ± 0.015 | -0.0025 ± 0.0021 | 0.0045 ± 0.011 | -0.0095 ± 0.011 | -0.007 ± 0.0042 | 0.0005 ± 0.011 | 0.006 ± 0.0028 | 0 ± 0.0028 | 0.011 ± 0.017 | -0.014 ± 0.017 | 0.0055 ± 0.026 | 0.0015 ± 0.022 | 0.004 ± 0.013 | 0.0095 ± 0.0078 |
| HDF3CGF:PAI-I | -0.021 ± 0.12 | 0.0115 ± 0.1 | 0.03 ± 0.069 | -0.017 ± 0.0028 | -0.0215 ± 0.0035 | -0.008 ± 0.041 | -0.003 ± 0.028 | 0.0125 ± 0.015 | -0.0055 ± 0.026 | -0.015 ± 0.013 | 0.007 ± 0.0014 | -0.013 ± 0.023 | -0.017 ± 0.017 | -0.0205 ± 0.0092 | -0.077 ± 0.054 | -0.0885 ± 0.066 | 0.0025 ± 0.0092 | 0.0135 ± 0.026 | 0.0185 ± 0.012 |
